“And” between values parts separate entries of the source, which are not always exact repeats. Equal entries are not always repeated. ± gives the uncertainty stated by the source.
Assay: xn = mol fraction of the nth substance listed

CCCC[P+](c1ccccc1)(c1ccccc1)c1ccccc1.[Br-] + OCCO
100 kPa, x2 = 0.9756
Conditions	viscosity [mPa·s]
303.15 K	21.6 ± 0.9
313.15 K	18.5 ± 0.8
323.15 K	15.5 ± 0.6
333.15 K	14 ± 0.6
343.15 K	12 ± 0.5
353.15 K	10.5 ± 0.4

C[N+](C)(C)CCO.O=S(=O)([N-]S(=O)(=O)C(F)(F)F)C(F)(F)F + OCCO
100 kPa, x1 = 0.14
Conditions	electrical conductivity [S/m]	viscosity [mPa·s]
303 K	0.381 ± 0.038	17.9 ± 0.57
323 K	0.73 ± 0.073	8.85 ± 0.28

C[P+](c1ccccc1)(c1ccccc1)c1ccccc1.[Br-] + OCCO
Conditions	viscosity [mPa·s]
298.15 K, 100 kPa, x1 = 0.1	35 ± 1.5
298.2 K, 101 kPa, x1 = 0.2	121 ± 6
303.15 K, 100 kPa, x1 = 0.33	116.5 ± 5.7
303.15 K, 100 kPa, x2 = 0.8333	56.5 ± 2.6
303.15 K, 100 kPa, x2 = 0.9091	30.5 ± 1.3
303.15 K, 100 kPa, x2 = 0.9756	17.6 ± 0.7
313.15 K, 100 kPa, x1 = 0.1	18.24 ± 0.78
313.15 K, 100 kPa, x1 = 0.33	65.5 ± 2.8
313.15 K, 100 kPa, x2 = 0.9756	13 ± 0.5
323.15 K, 100 kPa, x2 = 0.9756	9.5 ± 0.4
323.15 K, 101 kPa, x1 = 0.25	31.72 ± 0.38
333.15 K, 100 kPa, x2 = 0.9756	7.5 ± 0.3
343.15 K, 100 kPa, x2 = 0.9756	6 ± 0.3
353.15 K, 100 kPa, x2 = 0.9756	5.1 ± 0.2

O=S=O + OCCO + C[P+](c1ccccc1)(c1ccccc1)c1ccccc1.[Br-]
100 kPa
Conditions	viscosity [mPa·s]
303.15 K, x1 = 0.02458, x2 = 0.9516	18.4 ± 0.8
313.15 K, x1 = 0.01623, x2 = 0.9598	14 ± 0.6
323.15 K, x1 = 0.01303, x2 = 0.9629	10.1 ± 0.4
333.15 K, x1 = 0.01147, x2 = 0.9644	7.5 ± 0.4
343.15 K, x1 = 0.009705, x2 = 0.9661	6 ± 0.3

C[N+](C)(C)CCO.O=S(=O)([N-]S(=O)(=O)C(F)(F)F)C(F)(F)F + OCCOCCOCCOCCO
Conditions	viscosity [mPa·s]
298.15 K, 101 kPa, x2 = 0	144.8 ± 6.1

CCCCCCCCCCCCCCCC[N+](C)(C)C.[Br-] + OC[C@@H](O)[C@@H](O)[C@H](O)[C@@H](O)CO + O
viscosity [mPa·s], 100 kPa
Conditions	298.15 K	308.15 K	318.15 K
x2 = 0, x1 = 7.21e-06	0.896 ± 0.06	0.742 ± 0.06	0.617 ± 0.06
x2 = 0, x1 = 1.442e-05	0.898 ± 0.06	0.744 ± 0.06	0.617 ± 0.06
x2 = 0, x1 = 2.162e-05	0.9 ± 0.06	0.745 ± 0.06	0.617 ± 0.06

CCCCCCCCCCCCCCCC[N+](C)(C)C.[Br-] + OC[C@@H](O)[C@H](O)[C@@H](O)CO + O
viscosity [mPa·s], 100 kPa
Conditions	298.15 K	308.15 K	318.15 K
x1 = 7.19e-06, x2 = 0.002032	0.942 ± 0.06	0.778 ± 0.06	0.646 ± 0.06
x1 = 7.19e-06, x2 = 0.002472	0.952 ± 0.06	0.785 ± 0.06	0.652 ± 0.06
x1 = 7.19e-06, x2 = 0.002816	0.96 ± 0.061	0.791 ± 0.061	0.657 ± 0.06
x1 = 7.2e-06, x2 = 0.0009831	0.918 ± 0.06	0.759 ± 0.06	0.631 ± 0.06
x1 = 7.2e-06, x2 = 0.001215	0.923 ± 0.06	0.763 ± 0.06	0.634 ± 0.06
x1 = 7.2e-06, x2 = 0.00156	0.931 ± 0.06	0.769 ± 0.06	0.639 ± 0.06
x1 = 7.21e-06, x2 = 0	0.896 ± 0.06	0.742 ± 0.06	0.617 ± 0.06
x1 = 1.437e-05, x2 = 0.002971	0.97 ± 0.061	0.801 ± 0.061	0.664 ± 0.06
x1 = 1.438e-05, x2 = 0.002331	0.955 ± 0.06	0.789 ± 0.06	0.654 ± 0.06
x1 = 1.439e-05, x2 = 0.001497	0.935 ± 0.06	0.772 ± 0.06	0.641 ± 0.06
x1 = 1.439e-05, x2 = 0.002025	0.947 ± 0.06	0.783 ± 0.06	0.649 ± 0.06
x1 = 1.44e-05, x2 = 0.0008555	0.919 ± 0.06	0.76 ± 0.06	0.631 ± 0.06
x1 = 1.44e-05, x2 = 0.001291	0.929 ± 0.06	0.768 ± 0.06	0.638 ± 0.06
x1 = 1.442e-05, x2 = 0	0.898 ± 0.06	0.744 ± 0.06	0.617 ± 0.06
x1 = 2.156e-05, x2 = 0.002894	0.973 ± 0.061	0.804 ± 0.061	0.666 ± 0.06
x1 = 2.157e-05, x2 = 0.002365	0.96 ± 0.061	0.793 ± 0.06	0.657 ± 0.06
x1 = 2.158e-05, x2 = 0.002035	0.951 ± 0.06	0.786 ± 0.06	0.651 ± 0.06
x1 = 2.159e-05, x2 = 0.001618	0.941 ± 0.06	0.778 ± 0.06	0.644 ± 0.06
x1 = 2.16e-05, x2 = 0.0009365	0.924 ± 0.06	0.764 ± 0.06	0.633 ± 0.06
x1 = 2.16e-05, x2 = 0.001242	0.931 ± 0.06	0.77 ± 0.06	0.638 ± 0.06
x1 = 2.162e-05, x2 = 0	0.9 ± 0.06	0.745 ± 0.06	0.617 ± 0.06

CCCCCCCCn1cc[n+](C)c1.[Cl-] + OC[C@H]1O[C@@](CO)(O[C@H]2O[C@H](CO)[C@@H](O)[C@H](O)[C@H]2O)[C@@H](O)[C@@H]1O + O
298.15 K, 101.3 kPa
Conditions	electrical conductivity
x2 = 0, x1 = 4.96e-06	0.00314 ± 3e-05 S/m
x2 = 0, x1 = 7.53e-06	0.00467 ± 5e-05 S/m
x2 = 0, x1 = 1.002e-05	0.00613 ± 6e-05 S/m
x2 = 0, x1 = 1.247e-05	0.00756 ± 8e-05 S/m
x2 = 0, x1 = 1.481e-05	0.00893 ± 9e-05 S/m
x2 = 0, x1 = 1.716e-05	0.01029 ± 0.0001 S/m
x2 = 0, x1 = 1.95e-05	0.0116 ± 0.00012 S/m
x2 = 0, x1 = 2.177e-05	0.0129 ± 0.00013 S/m
x2 = 0, x1 = 2.424e-05	0.01436 ± 0.00014 S/m
x2 = 0, x1 = 2.667e-05	0.0158 ± 0.00016 S/m
x2 = 0, x1 = 2.939e-05	0.0173 ± 0.00017 S/m
x2 = 0.003591, x1 = 1.259e-05	0.00669 ± 7e-05 S/m
x2 = 0.003591, x1 = 1.587e-05	0.00832 ± 8e-05 S/m
x2 = 0.003591, x1 = 1.902e-05	0.00988 ± 0.0001 S/m
x2 = 0.003591, x1 = 2.222e-05	0.0114 ± 0.00012 S/m
x2 = 0.003591, x1 = 2.521e-05	0.0129 ± 0.00013 S/m
x2 = 0.003591, x1 = 2.835e-05	0.0144 ± 0.00015 S/m
x2 = 0.003591, x1 = 3.142e-05	0.0159 ± 0.00016 S/m
x2 = 0.003591, x1 = 3.424e-05	0.01727 ± 0.00017 S/m
x2 = 0.003591, x1 = 3.712e-05	0.0186 ± 0.00019 S/m
x2 = 0.007156, x1 = 1.254e-05	0.00531 ± 5e-05 S/m
x2 = 0.007156, x1 = 1.623e-05	0.00676 ± 7e-05 S/m
x2 = 0.007156, x1 = 1.993e-05	0.00821 ± 8e-05 S/m
x2 = 0.007156, x1 = 2.37e-05	0.00967 ± 0.0001 S/m
x2 = 0.007156, x1 = 2.738e-05	0.0111 ± 0.00011 S/m
x2 = 0.007156, x1 = 3.084e-05	0.01242 ± 0.00012 S/m
x2 = 0.007156, x1 = 3.403e-05	0.0137 ± 0.00014 S/m
x2 = 0.007156, x1 = 3.72e-05	0.0149 ± 0.00015 S/m
x2 = 0.007156, x1 = 4.042e-05	0.01608 ± 0.00016 S/m
x2 = 0.007156, x1 = 4.288e-05	0.01701 ± 0.00017 S/m
x2 = 0.0107, x1 = 8.12e-06	0.00311 ± 3e-05 S/m
x2 = 0.0107, x1 = 1.295e-05	0.00472 ± 5e-05 S/m
x2 = 0.0107, x1 = 1.756e-05	0.00623 ± 6e-05 S/m
x2 = 0.0107, x1 = 2.181e-05	0.00762 ± 8e-05 S/m
x2 = 0.0107, x1 = 2.602e-05	0.00898 ± 9e-05 S/m
x2 = 0.0107, x1 = 3.017e-05	0.0103 ± 0.0001 S/m
x2 = 0.0107, x1 = 3.408e-05	0.0115 ± 0.00012 S/m
x2 = 0.0107, x1 = 3.778e-05	0.0127 ± 0.00013 S/m
x2 = 0.0107, x1 = 4.136e-05	0.0138 ± 0.00014 S/m
x2 = 0.0107, x1 = 4.484e-05	0.0149 ± 0.00015 S/m
x2 = 0.0107, x1 = 4.818e-05	0.016 ± 0.00016 S/m
x2 = 0.01421, x1 = 9.43e-06	0.00302 ± 3e-05 S/m
x2 = 0.01421, x1 = 1.407e-05	0.00432 ± 4e-05 S/m
x2 = 0.01421, x1 = 1.861e-05	0.00559 ± 6e-05 S/m
x2 = 0.01421, x1 = 2.29e-05	0.00678 ± 7e-05 S/m
x2 = 0.01421, x1 = 2.718e-05	0.00795 ± 8e-05 S/m
x2 = 0.01421, x1 = 3.134e-05	0.00908 ± 9e-05 S/m
x2 = 0.01421, x1 = 3.512e-05	0.0101 ± 0.0001 S/m
x2 = 0.01421, x1 = 3.883e-05	0.0111 ± 0.00011 S/m
x2 = 0.01421, x1 = 4.258e-05	0.0121 ± 0.00012 S/m
x2 = 0.01421, x1 = 4.643e-05	0.01312 ± 0.00013 S/m
x2 = 0.0177, x1 = 7.66e-06	0.00219 ± 2e-05 S/m
x2 = 0.0177, x1 = 1.502e-05	0.00393 ± 4e-05 S/m
x2 = 0.0177, x1 = 2.194e-05	0.00554 ± 6e-05 S/m
x2 = 0.0177, x1 = 2.846e-05	0.00705 ± 7e-05 S/m
x2 = 0.0177, x1 = 3.471e-05	0.00848 ± 9e-05 S/m
x2 = 0.0177, x1 = 4.134e-05	0.00996 ± 0.0001 S/m
x2 = 0.0177, x1 = 4.728e-05	0.01128 ± 0.00011 S/m
x2 = 0.0177, x1 = 5.36e-05	0.0127 ± 0.00013 S/m
x2 = 0.0177, x1 = 5.928e-05	0.0139 ± 0.00014 S/m
x2 = 0.0177, x1 = 6.496e-05	0.01517 ± 0.00015 S/m
x2 = 0.02116, x3 = 0.9788	0.0133 S/m and 0.0143 S/m

CCCCCCCCCCCCCCCC[N+](C)(C)C.[Br-] + OC[C@H]1O[C@H](O[C@H]2[C@H](O)[C@@H](O)C(O)O[C@@H]2CO)[C@H](O)[C@@H](O)[C@@H]1O + O
viscosity [mPa·s], 100 kPa
Conditions	298.15 K	308.15 K	318.15 K
x1 = 7.21e-06, x2 = 0	0.896 ± 0.061	0.742 ± 0.061	0.617 ± 0.061
x1 = 1.442e-05, x2 = 0	0.898 ± 0.061	0.744 ± 0.061	0.617 ± 0.061
x1 = 2.162e-05, x2 = 0	0.9 ± 0.061	0.745 ± 0.061	0.617 ± 0.061

Reference: the CheMixHub ionic liquid set
